Experimental data reported in US20240166641A1, “HETEROCYCLES AND USES THEREOF” (Kumquat Biosciences Inc., priority 2021, published 2024).

Legend:
PTP1B = target: T1, PTP1B (Homo sapiens, UniProt P18031); test: Phosphatase activity assay (Bio-Biochem-DiFMUP), PTP1B; format: biochemical; conditions: DiFMUP substrate, room temperature
T1 sequence (P18031 1-435): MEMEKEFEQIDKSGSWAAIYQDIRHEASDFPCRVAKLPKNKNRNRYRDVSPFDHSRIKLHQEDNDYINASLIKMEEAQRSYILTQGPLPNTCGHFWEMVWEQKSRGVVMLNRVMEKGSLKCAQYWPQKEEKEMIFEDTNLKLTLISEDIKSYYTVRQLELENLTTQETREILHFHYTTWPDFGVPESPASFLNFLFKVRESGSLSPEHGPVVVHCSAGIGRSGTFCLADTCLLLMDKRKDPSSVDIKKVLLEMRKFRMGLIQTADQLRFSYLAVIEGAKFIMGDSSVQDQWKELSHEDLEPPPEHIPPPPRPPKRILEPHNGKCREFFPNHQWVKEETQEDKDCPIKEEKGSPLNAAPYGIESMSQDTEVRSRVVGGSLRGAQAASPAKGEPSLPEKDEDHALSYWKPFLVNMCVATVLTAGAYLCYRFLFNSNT
Method in brief: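 Buffer was 50 mM Bis-Tris pH 6.3, 2 mM EDTA, 5 mM DMH, with 10 μM FDP or DiFMUP substrate, enzyme added last, at room temperature. Fluorescent product was read continuously for 15–30 min (DiFMU ex 360/em 450 nm; FMP ex 440/em 530 nm). Initial rates against 10-point inhibitor series were fitted with a 4-parameter equation to give IC50.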

[1] = tested on: B16F10 mouse melanoma cells; test: MHC expression associated with IFNγ signaling, flow cytometry; format: cell-based; conditions: B16-F10, 3 uM compound, 48 hours, normalized to DMSO/with IFNγ control, read-out: % MHC in cells treated with Compound at 3 uM relative to negative control (DMSO)
Method: B16F10 mouse melanoma cells (ATCC Cat #CRL-6475, Manassas, VA) are seeded at approximately a density of 500 cells per well in a 384-well clear bottom plate (Corning Cat #3765, Corning, 5 NY) in 25 μL total volume of DMEM+10% FBS (Sigma Cat #D6429 and Sigma Cat #F4135, St. Louis, MO). Cells are allowed to adhere overnight at 37° C.+5% CO2. On the following day, 12.5 μL of mouse IFNγ (RD systems Cat #485-MI/CF, Minneapolis, MN) is added to half of the plate (columns 13-24) at a concentration of 2 ng/mL for a final assay concentration of 0.5 ng/mL of IFNγ. Media only (12.5 μL of DMEM+10% FBS) is added to the remainder of the 10 plate (columns 1-12). Next, compounds resuspended in DMSO (Sigma Cat #D2650) at 100 mM are diluted in semi-log dilutions in DMSO ranging from 100 mM to 0.001 mM and DMSO only controls are included. The compound/DMSO dilutions are further diluted 1:250 in DMEM+10% FBS, and 12.5 μL of these dilutions are added in triplicates to cells of both treatment arms (with and without IFNγ). Compounds are only dosed in the inner 240 wells, avoiding the outer 2-well perimeter of the plate to minimize edge effects. Finally, the plate is loaded into an IncuCyte® S3 Live Cell Analysis System (Essen Bioscience-Sartorius, Ann Arbor, MI) maintained in a 37° C.+5% CO2 incubator, allowed to equilibrate for 2 hours, and treated for 48 hours. MHC levels are measured by flow cytometry using a FITC anti-mouse H-2kb antibody (clone AF6-88.5), and levels are normalized based on DMSO/with IFNγ control. Table 7 below summarizes the percentage in MHC expression in cells treated with or without compounds disclosed herein at a specified concentration.

[2] = tested on: C57B3L/6 mouse primary T cells; test: T-cell activation: CD25 expression on primary T cells stimulated with anti-CD3/CD28; format: cell-based; conditions: 10 uM compound, primary T cells stimulated with antibodies to CD3 and CD28
Method: The increase of T cell activation and most importantly T cell function is a strategy for novel immune oncology approaches to promote tumor immunity. In vitro assays using wildtype C57B3L/6 mouse primary T cells are commonly used to assess the impact of compound on T cell activation and function. To assess the ability of compounds disclosed here (e.g., PTPN2 inhibitors) to stimulate T cell activation, primary T cells stimulated with antibodies to CD3 and CD28 are treated with or without exemplary compounds (at 10 uM) disclosed herein are stained with antibodies directed to T-cell activation markers, such as CD25. Additional markers including without limitation CD69, SLAMF6, TIM3, and PD1 can also be employed as a proxy for T cell activation.

CC(C)CCOc1ccc2cc(O)c(N3CC(=O)NS3(=O)=O)c(F)c2n1 [Compound 135, 5-(8-fluoro-6-hydroxy-2-(isopentyloxy)quinolin-7-yl)-1,2,5-thiadiazolidin-3-one 1,1-dioxide]
IC50 (PTP1B): ≤ 1000 nM
activation at 3 µM [1]: > 10%
% CD25 expression in cells treated with subject compounds relative to negative control (DMSO) [2]: 431%

CC(C)CCNc1ccc2cc(O)c(N3CC(=O)NS3(=O)=O)c(F)c2n1 [Compound 117]
IC50 (PTP1B): ≤ 1000 nM
activation at 3 µM [1]: > 10%
% CD25 expression in cells treated with subject compounds relative to negative control (DMSO) [2]: 363%

COc1ccc2cc(O)c(N3CC(=O)NS3(=O)=O)c(F)c2n1 [Compound 154]
IC50 (PTP1B): ≤ 1000 nM
activation at 3 µM [1]: > 10%

CN1CCCC(COc2ccc3cc(O)c(N4CC(=O)NS4(=O)=O)c(F)c3n2)C1 (stereo not drawn) [Compound 176]
IC50 (PTP1B): ≤ 1000 nM
activation at 3 µM [1]: > 10%
% CD25 expression in cells treated with subject compounds relative to negative control (DMSO) [2]: 206%

CNc1ccc2cc(O)c(N3CC(=O)NS3(=O)=O)c(F)c2n1 [Compound 153]
IC50 (PTP1B): ≤ 1000 nM
activation at 3 µM [1]: > 10%

CN(C)CCOc1ccc2cc(O)c(N3CC(=O)NS3(=O)=O)c(F)c2n1 [Compound 178]
IC50 (PTP1B): ≤ 1000 nM
activation at 3 µM [1]: > 10%

O=C1CN(c2c(O)cc3ccc(OCC4CCS(=O)(=O)CC4)nc3c2F)S(=O)(=O)N1 [Compound 143]
IC50 (PTP1B): ≤ 1000 nM
activation at 3 µM [1]: > 10%
% CD25 expression in cells treated with subject compounds relative to negative control (DMSO) [2]: 323%
